Source: the NIST ThermoML archive (doi:10.1021/je0501639)

Assays:
[1] = refractive index (Na D-line) (dimensionless); xn = mol fraction of the nth substance listed; conditions: 100.8 kPa, Liquid, Standard Abbe refractometry
[2] = xn = mol fraction of the nth substance listed; conditions: 100.8 kPa, Liquid

CC(C)(C)O [2-methylpropan-2-ol] + CC(C)CC(C)(C)C
Conditions | mass density, 298.15 K [kg/m3] | mass density, 308.15 K [kg/m3] | mass density, 318.15 K [kg/m3] | refractive index, 298.15 K | refractive index, 308.15 K | refractive index, 318.15 K | viscosity, 298.15 K [mPa·s] | viscosity, 308.15 K [mPa·s] | viscosity, 318.15 K [mPa·s]
[1], x1 = 0.05 | – | – | – | 1.38834 | 1.38325 | 1.37818 | – | – | –
[1], x1 = 0.1 | – | – | – | 1.38784 | 1.38271 | 1.37755 | – | – | –
[1], x1 = 0.15 | – | – | – | 1.38735 | 1.38219 | 1.37703 | – | – | –
[1], x1 = 0.2 | – | – | – | 1.38693 | 1.38177 | 1.37655 | – | – | –
[1], x1 = 0.25 | – | – | – | 1.3865 | 1.38135 | 1.37611 | – | – | –
[1], x1 = 0.3 | – | – | – | 1.38612 | 1.38095 | 1.3757 | – | – | –
[1], x1 = 0.35 | – | – | – | 1.38573 | 1.38055 | 1.37528 | – | – | –
[1], x1 = 0.4 | – | – | – | 1.38537 | 1.38021 | 1.37491 | – | – | –
[1], x1 = 0.45 | – | – | – | 1.38505 | 1.37986 | 1.37458 | – | – | –
[1], x1 = 0.5 | – | – | – | 1.38473 | 1.37955 | 1.37427 | – | – | –
[1], x1 = 0.55 | – | – | – | 1.38445 | 1.37926 | 1.37397 | – | – | –
[1], x1 = 0.6 | – | – | – | 1.3842 | 1.37903 | 1.37371 | – | – | –
[1], x1 = 0.65 | – | – | – | 1.38398 | 1.37881 | 1.37348 | – | – | –
[1], x1 = 0.7 | – | – | – | 1.38381 | 1.37862 | 1.37331 | – | – | –
[1], x1 = 0.75 | – | – | – | 1.38371 | 1.3785 | 1.37317 | – | – | –
[1], x1 = 0.8 | – | – | – | 1.38368 | 1.37847 | 1.37313 | – | – | –
[1], x1 = 0.85 | – | – | – | 1.38381 | 1.37858 | 1.37323 | – | – | –
[1], x1 = 0.9 | – | – | – | 1.38405 | 1.37879 | 1.37339 | – | – | –
[1], x1 = 0.95 | – | – | – | 1.38436 | 1.37914 | 1.37372 | – | – | –
[1], x1 = 1 | – | – | – | 1.38481 | 1.3796 | 1.37416 | – | – | –
[2], x1 = 0.05 | 689.77 | 681.15 | 672.12 | – | – | – | 0.483 | 0.425 | 0.377
[2], x1 = 0.1 | 691.89 | 683.25 | 674.11 | – | – | – | 0.509 | 0.449 | 0.4
[2], x1 = 0.15 | 694.45 | 685.62 | 676.56 | – | – | – | 0.515 | 0.447 | 0.394
[2], x1 = 0.2 | 697.14 | 688.28 | 679.2 | – | – | – | 0.553 | 0.478 | 0.413
[2], x1 = 0.25 | 700.02 | 691.11 | 681.96 | – | – | – | 0.564 | 0.48 | 0.42
[2], x1 = 0.3 | 703.12 | 694.14 | 684.92 | – | – | – | 0.598 | 0.522 | 0.449
[2], x1 = 0.35 | 706.4 | 697.38 | 688.11 | – | – | – | 0.614 | 0.523 | 0.45
[2], x1 = 0.4 | 709.87 | 700.8 | 691.43 | – | – | – | 0.665 | 0.564 | 0.48
[2], x1 = 0.45 | 713.52 | 704.42 | 694.99 | – | – | – | 0.698 | 0.59 | 0.504
[2], x1 = 0.5 | 717.43 | 708.24 | 698.77 | – | – | – | 0.765 | 0.633 | 0.542
[2], x1 = 0.55 | 721.62 | 712.37 | 702.81 | – | – | – | 0.805 | 0.672 | 0.564
[2], x1 = 0.6 | 726.19 | 716.85 | 707.21 | – | – | – | 0.912 | 0.726 | 0.614
[2], x1 = 0.65 | 731.11 | 721.69 | 711.98 | – | – | – | 0.984 | 0.786 | 0.649
[2], x1 = 0.7 | 736.55 | 727.03 | 717.21 | – | – | – | 1.107 | 0.866 | 0.706
[2], x1 = 0.75 | 742.44 | 732.81 | 722.88 | – | – | – | 1.297 | 0.994 | 0.798
[2], x1 = 0.8 | 748.88 | 739.1 | 729.03 | – | – | – | 1.557 | 1.14 | 0.889
[2], x1 = 0.85 | 755.87 | 745.89 | 735.65 | – | – | – | 1.895 | 1.332 | 1.028
[2], x1 = 0.9 | 763.54 | 753.43 | 743.04 | – | – | – | 2.426 | 1.622 | 1.164
[2], x1 = 0.95 | 771.9 | 761.62 | 751.07 | – | – | – | 3.172 | 2.02 | 1.398
[2], x1 = 1 | 780.99 | 770.7 | 760.05 | – | – | – | 4.43 | 2.622 | 1.708

CC(C)(C)O [2-methylpropan-2-ol] + CCO
Conditions | mass density, 298.15 K [kg/m3] | mass density, 308.15 K [kg/m3] | mass density, 318.15 K [kg/m3] | refractive index, 298.15 K | refractive index, 308.15 K | refractive index, 318.15 K
[1], x2 = 0 | – | – | – | 1.38481 | 1.3796 | 1.37416
[1], x2 = 0.05 | – | – | – | 1.38427 | 1.37911 | 1.37378
[1], x2 = 0.1 | – | – | – | 1.38367 | 1.37861 | 1.37336
[1], x2 = 0.15 | – | – | – | 1.38294 | 1.37797 | 1.37284
[1], x2 = 0.2 | – | – | – | 1.38213 | 1.37726 | 1.37224
[1], x2 = 0.25 | – | – | – | 1.38123 | 1.37648 | 1.3715
[1], x2 = 0.3 | – | – | – | 1.38027 | 1.37558 | 1.37072
[1], x2 = 0.35 | – | – | – | 1.37923 | 1.37463 | 1.36984
[1], x2 = 0.4 | – | – | – | 1.37813 | 1.3736 | 1.36891
[1], x2 = 0.45 | – | – | – | 1.37698 | 1.37253 | 1.36791
[1], x2 = 0.5 | – | – | – | 1.37576 | 1.37136 | 1.36682
[1], x2 = 0.55 | – | – | – | 1.37449 | 1.37013 | 1.36567
[1], x2 = 0.6 | – | – | – | 1.37312 | 1.36883 | 1.36442
[1], x2 = 0.65 | – | – | – | 1.37171 | 1.36741 | 1.36304
[1], x2 = 0.7 | – | – | – | 1.37018 | 1.36593 | 1.36162
[1], x2 = 0.75 | – | – | – | 1.36859 | 1.36438 | 1.36007
[1], x2 = 0.8 | – | – | – | 1.3669 | 1.36271 | 1.35848
[1], x2 = 0.85 | – | – | – | 1.36515 | 1.36096 | 1.35677
[1], x2 = 0.9 | – | – | – | 1.36332 | 1.35914 | 1.35498
[1], x2 = 0.95 | – | – | – | 1.36137 | 1.3572 | 1.35308
[2], x2 = 0 | 780.99 | 770.7 | 760.05 | – | – | –
[2], x2 = 0.05 | 782.27 | 772.23 | 761.94 | – | – | –
[2], x2 = 0.1 | 782.82 | 772.95 | 762.82 | – | – | –
[2], x2 = 0.15 | 783.19 | 773.6 | 763.53 | – | – | –
[2], x2 = 0.2 | 783.47 | 774.03 | 764.14 | – | – | –
[2], x2 = 0.25 | 783.65 | 774.34 | 764.59 | – | – | –
[2], x2 = 0.3 | 783.81 | 774.62 | 765.01 | – | – | –
[2], x2 = 0.35 | 783.94 | 774.87 | 765.41 | – | – | –
[2], x2 = 0.4 | 784.03 | 775.07 | 765.74 | – | – | –
[2], x2 = 0.45 | 784.11 | 775.29 | 766.04 | – | – | –
[2], x2 = 0.5 | 784.18 | 775.45 | 766.31 | – | – | –
[2], x2 = 0.55 | 784.29 | 775.61 | 766.58 | – | – | –
[2], x2 = 0.6 | 784.32 | 775.68 | 766.72 | – | – | –
[2], x2 = 0.65 | 784.4 | 775.77 | 766.87 | – | – | –
[2], x2 = 0.7 | 784.42 | 775.85 | 767.01 | – | – | –
[2], x2 = 0.75 | 784.49 | 775.93 | 767.15 | – | – | –
[2], x2 = 0.8 | 784.62 | 776.07 | 767.27 | – | – | –
[2], x2 = 0.85 | 784.75 | 776.18 | 767.41 | – | – | –
[2], x2 = 0.9 | 784.86 | 776.28 | 767.51 | – | – | –
[2], x2 = 0.95 | 785.02 | 776.4 | 767.6 | – | – | –

viscosity [mPa·s], [2], Falling or rolling sphere viscometry
Conditions | 298.15 K | 308.15 K | 318.15 K
x2 = 0 | 4.43 | 2.622 | 1.708
x2 = 0.05 | 4.295 | 2.587 | 1.73
x2 = 0.1 | 4.135 | 2.536 | 1.719
x2 = 0.15 | 3.949 | 2.463 | 1.698
x2 = 0.2 | 3.752 | 2.374 | 1.662
x2 = 0.25 | 3.552 | 2.277 | 1.618
x2 = 0.3 | 3.348 | 2.18 | 1.568
x2 = 0.35 | 3.134 | 2.082 | 1.515
x2 = 0.4 | 2.905 | 1.978 | 1.456
x2 = 0.45 | 2.668 | 1.877 | 1.395
x2 = 0.5 | 2.462 | 1.772 | 1.332
x2 = 0.55 | 2.272 | 1.675 | 1.272
x2 = 0.6 | 2.097 | 1.575 | 1.213
x2 = 0.65 | 1.934 | 1.475 | 1.153
x2 = 0.7 | 1.782 | 1.38 | 1.092
x2 = 0.75 | 1.644 | 1.291 | 1.032
x2 = 0.8 | 1.518 | 1.206 | 0.974
x2 = 0.85 | 1.4 | 1.126 | 0.919
x2 = 0.9 | 1.285 | 1.048 | 0.862
x2 = 0.95 | 1.188 | 0.976 | 0.805
